Data as given in patent US20040214849A1, “Parenteral administration of 6-hydroxy-oxymorphone for use as an analgesic” (priority 2001, published 2004).

Key:
[1] = Pharmacokinetic study: blood plasma levels over 12 hours after administration of oxymorphone; format: in vivo
Description: (§1) In separate studies, blood plasma levels and indications of pain relief were recorded over a 12 hour period. FIGS. 1-4 show graphical representation of the data combining the two studies such that the effect of blood plasma levels on pain can be evaluated.
After this time, oxymorphone levels again drop and eventually fall to levels near the earlier plateau.

Opiate, Delta 1 = assay: Opiate Delta 1 receptor binding assay
pain = assay: Pain relief (PID / categorical pain scores) compared with blood plasma levels; format: in vivo; details: based on the pharmacokinetic studies
Description: as §1
The amount administered will be dependent upon normal criteria such as patient weight, intensity of pain, and other factors. Based on the pharmacokinetic studies blood plasma levels around at least 0.05 ng/mL will provide some analgesia. The upper plasma level limit will be ultimately established by safety concerns. […] Subsequent doses may be required to maintain these blood levels.

[2] = target: T1, Opiate, Delta 2 (Human Recombinant) (Homo sapiens, UniProt P41143); assay: Opiate Delta 2 receptor binding assay
T1 construct: expressed in transfected cells
T1 sequence (P41143 whole entry): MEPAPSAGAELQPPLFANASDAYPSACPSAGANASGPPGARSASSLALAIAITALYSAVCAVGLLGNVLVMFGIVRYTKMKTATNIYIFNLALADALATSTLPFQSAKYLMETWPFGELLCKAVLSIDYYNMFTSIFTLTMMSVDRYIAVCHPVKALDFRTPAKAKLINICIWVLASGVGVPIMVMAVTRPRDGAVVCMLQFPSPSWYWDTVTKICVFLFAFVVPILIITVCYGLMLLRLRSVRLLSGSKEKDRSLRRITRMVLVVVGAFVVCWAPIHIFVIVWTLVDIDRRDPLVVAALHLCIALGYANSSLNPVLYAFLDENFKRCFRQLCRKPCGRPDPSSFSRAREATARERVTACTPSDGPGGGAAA

[3] = target: T2, Opiate, Mu (Human Recombinant) (Homo sapiens, UniProt P35372); assay: Opiate Mu receptor binding assay
T2 construct: expressed in transfected cells
T2 sequence (P35372 whole entry): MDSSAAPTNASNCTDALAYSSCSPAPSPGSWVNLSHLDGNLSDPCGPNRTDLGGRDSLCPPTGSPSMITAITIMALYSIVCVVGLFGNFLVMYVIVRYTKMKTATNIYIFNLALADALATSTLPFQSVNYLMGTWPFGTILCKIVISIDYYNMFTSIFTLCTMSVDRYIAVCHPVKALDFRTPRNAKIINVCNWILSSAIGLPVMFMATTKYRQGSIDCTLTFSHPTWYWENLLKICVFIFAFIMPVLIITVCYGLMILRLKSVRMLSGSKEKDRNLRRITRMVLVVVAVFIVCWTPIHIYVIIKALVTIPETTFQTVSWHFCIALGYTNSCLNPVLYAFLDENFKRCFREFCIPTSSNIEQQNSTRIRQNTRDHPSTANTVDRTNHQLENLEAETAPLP

[4] = target: T3, Opiate, Kappa (Human Recombinant) (Homo sapiens, UniProt P41145); assay: Opiate Kappa receptor binding assay
T3 construct: expressed in transfected cells
T3 sequence (P41145 whole entry): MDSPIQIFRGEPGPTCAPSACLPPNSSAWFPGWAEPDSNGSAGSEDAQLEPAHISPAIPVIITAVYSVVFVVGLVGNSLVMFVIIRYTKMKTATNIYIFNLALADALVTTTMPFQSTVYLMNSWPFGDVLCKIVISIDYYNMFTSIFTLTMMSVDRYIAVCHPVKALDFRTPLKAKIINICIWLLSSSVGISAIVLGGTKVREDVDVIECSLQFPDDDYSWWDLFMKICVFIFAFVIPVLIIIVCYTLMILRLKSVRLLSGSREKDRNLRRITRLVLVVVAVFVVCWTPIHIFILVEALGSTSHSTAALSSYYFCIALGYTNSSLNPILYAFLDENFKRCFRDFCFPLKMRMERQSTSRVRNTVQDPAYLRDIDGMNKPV

CN1CC[C@]23c4c5ccc(O)c4O[C@H]2C(=O)CC[C@@]3(O)[C@H]1C5 [oxymorphone]
time of second spike of blood plasma level ([1]; from administration of oxymorphone): 4 to 6 h
binding, Opiate Delta 1 (Opiate, Delta 1; 10 nm (1.0 E−8)): −18.26%
binding, Opiate Delta 1 (Opiate, Delta 1; 10 μm (1.0 E−5)): 89.03%

CN1CC[C@]23c4c5ccc(O)c4O[C@H]2C(O)CC[C@@]3(O)[C@H]1C5 (stereo partly shown) [6-hydroxy oxymorphone]
blood plasma level that will provide some analgesia (pain): at least 0.05 ng/mL
time of peak blood plasma level ([1]; after administration of oxymorphone): ≤ 2 h
binding, Opiate Delta 2 (Human Recombinant) ([2]; 10 nm (1.0 E−8)): 7.19%
binding, Opiate Delta 2 (Human Recombinant) ([2]; 10 μm (1.0 E−5)): 55.45%
binding, Opiate Mu (Human Recombinant) ([3]; 10 nm (1.0 E−8)): 63.16%
binding, Opiate Mu (Human Recombinant) ([3]; 10 μm (1.0 E−5)): 99.91%
binding, Opiate Kappa (Human Recombinant) ([4]; 10 nm (1.0 E−8)): 2.45%
binding, Opiate Kappa (Human Recombinant) ([4]; 10 μm (1.0 E−5)): 62.47%
binding, Opiate Delta 1 (Opiate, Delta 1; 10 nm (1.0 E−8)): −4.12%
binding, Opiate Delta 1 (Opiate, Delta 1; 10 μm (1.0 E−5)): 90.48%
